Laboratory results reported in patent US20240300948A1, “Heterocyclic Compounds As Kinase Inhibitors” (Incyte Corporation, priority 2023, published 2024).
pIC50: −log10 of the molar value.

Legend:
[1] = target: T1, pseudo-kinase domain (JH2, amino-acids 536-812 with 3 surface mutations W659A, W777A, F794H) of human V617F mutant JAK2 (Homo sapiens, UniProt O60674, F794H/V617F/W659A/W777A); assay: JAK2 LanthaScreen JH2-V617F binding assay; conditions: 50 nM tracer, 1 hour at 25° C., read-out: JH2 BIND V617F IC50
T1 construct: pseudo-kinase domain (JH2, amino-acids 536-812 with 3 surface mutations W659A, W777A, F794H); His (C); Avi (biotinylated) (C); purchased BPS Bioscience 79498; host or cells: baculovirus expression system
Experimental: Example C. JAK2 LanthaScreen JH2-V617F Binding Assay
(§1) JAK2 JH2-V617F binding assay utilizes pseudo-kinase domain (JH2, amino-acids 536-812 with 3 surface mutations W659A, W777A, F794H) of human V617F mutant JAK2 expressed as C-terminal His-Avi-tagged, biotinylated protein in a baculovirus expression system (BPS Bioscience, Catalog #79498). The assay was conducted in black 384-well polystyrene plates in a final reaction volume of 20 μL. JAK2 JH2-V617F (0.26 nM) was incubated with compounds (100 nL serially diluted in DMSO) in the presence of 50 nM Fluorescent JAK2-JH2 Tracer (MedChem Express Catalog #HY-102055) and 0.25 nM Streptavidin-Tb cryptate (Cisbio Part #610SATLB) in assay buffer (50 mM Tris, pH=7.5, 10 mM MgCl2, 0.01% Brij-35, 0.1% BSA, 1 mM EGTA, 5% Glycerol and 5 mM DTT). Non-specific binding was accessed in the presence of 2 mM ATP. After incubation for 1 hour at 25° C., LanthaScreen signals were read on a PHERAstar FS plate reader (BMG LABTECH). Data was analyzed with IDBS XLfit and GraphPad Prism 5.0 software using a four parameter dose response curve to determine IC50 for each compound.

[2] = target: T2, catalytic domain (JH1, amino acids 826-1132) of human JAK2 (Homo sapiens, UniProt O60674); assay: JAK2 LanthaScreen JH1 binding assay; conditions: 50 nM tracer, 2 hours at 25° C., read-out: JH1 BIND IC50
T2 construct: catalytic domain (JH1, amino acids 826-1132) of human JAK2; FLAG (N); purchased Carna Biosciences 08-445-20N; host or cells: baculovirus expression system
Experimental: Example A. JAK2 LanthaScreen […] Binding Assay
JAK2 JH1 binding assay utilizes catalytic domain (JH1, amino acids 826-1132) of human JAK2 expressed as N-terminal FLAG-tagged, biotinylated protein in a baculovirus expression system (Carna Biosciences, Product #08-445-20N). The assay was conducted in black 384-well polystyrene plates in a final reaction volume of 20 μL. JAK2 JH1 (1.5 nM) was incubated with compounds (100 nL serially diluted in DMSO) in the presence of 50 nM fluorescent JAK2-JH1 tracer and 0.5 nM Streptavidin-Tb cryptate (Cisbio Part #610SATLB) in assay buffer (50 mM Tris, pH=7.5, 10 mM MgCl2, 0.01% Brij-35, 0.1% BSA, 1 mM EGTA, 5% Glycerol and 5 mM DTT). Non-specific binding was accessed in the presence of 2 mM ATP. After incubation for 2 hours at 25° C., LanthaScreen signals were read on a PHERAstar FS plate reader (BMG LABTECH). Data was analyzed with IDBS XLfit and GraphPad Prism 5.0 software using a four parameter dose response curve to determine IC50 for each compound.

[3] = target: T3, pseudo-kinase domain (JH2, amino-acids 536-812 with 3 surface mutations W659A, W777A, F794H) of human Wild Type JAK2 (Homo sapiens, UniProt O60674, F794H/W659A/W777A); assay: JAK2 LanthaScreen JH2-WT binding assay; conditions: 50 nM tracer, 1 hour at 25° C., read-out: JH2 BIND WT IC50
T3 construct: pseudo-kinase domain (JH2, amino-acids 536-812 with 3 surface mutations W659A, W777A, F794H); His (C); Avi (biotinylated) (C); purchased BPS Bioscience 79463; host or cells: baculovirus expression system
Experimental: Example B. JAK2 LanthaScreen JH2-WT Binding Assay
as §1, with “JH2-WT” for “JH2-V617F”, “Wild Type” for “V617F mutant”, “#79463).” for “#79498).”, “JH2-WT (0.145” for “JH2-V617F (0.26”

T2 sequence (O60674 826-1132): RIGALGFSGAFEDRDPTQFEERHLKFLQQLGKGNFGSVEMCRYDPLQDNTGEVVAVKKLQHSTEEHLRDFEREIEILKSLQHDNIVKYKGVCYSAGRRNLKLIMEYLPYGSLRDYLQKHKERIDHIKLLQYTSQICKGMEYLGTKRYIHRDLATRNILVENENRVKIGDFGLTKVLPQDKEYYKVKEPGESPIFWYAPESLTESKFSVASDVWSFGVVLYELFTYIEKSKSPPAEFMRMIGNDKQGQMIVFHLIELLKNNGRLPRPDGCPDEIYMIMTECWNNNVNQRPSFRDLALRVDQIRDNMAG
T3 sequence (O60674 536-812 W659A/W777A/F794H): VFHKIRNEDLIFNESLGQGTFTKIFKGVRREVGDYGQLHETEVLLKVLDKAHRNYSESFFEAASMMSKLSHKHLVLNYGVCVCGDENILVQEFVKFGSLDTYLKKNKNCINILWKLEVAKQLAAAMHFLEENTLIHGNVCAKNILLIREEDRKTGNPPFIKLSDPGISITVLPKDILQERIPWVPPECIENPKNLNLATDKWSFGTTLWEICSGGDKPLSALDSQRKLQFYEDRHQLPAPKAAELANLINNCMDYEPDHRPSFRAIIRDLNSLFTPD
T1 sequence (O60674 536-812 V617F/W659A/W777A/F794H): as the sequence (O60674 536-812 W659A/W777A/F794H) above, with V82F counted along it

`CC(C)COC(=O)N[C@@H]1CC[C@@H](N2C(=O)NCc3cnc4[nH]c(-c5cnn(C)c5)c(-c5ccc6c(cnn6C(C)C)c5)c4c32)C1` [Example 12, Isobutyl ((1R,3R)-3-(9-(1-isopropyl-1H-indazol-5-yl)-8-(1-methyl-1H-pyrazol-4-yl)-2-oxo-2,3,4,7-tetrahydro-1H-pyrrolo[3′,2′:5,6]pyrido[4,3-d]pyrimidin-1-yl)cyclopentyl) carbamate] was tested, and the pIC50 [1] was 7.00 to 8.00, the pIC50 [2] was < 6.00 and the pIC50 [3] was 7.00 to 8.00.
`COC(=O)N[C@]1(C)CC[C@H](N2C(=O)NCc3cnc4[nH]c(-c5cnn(C)c5)c(-c5ccc6c(cnn6C(C)C)c5)c4c32)CC1` [Example 13, Methyl ((1s,4s)-4-(9-(1-isopropyl-1H-indazol-5-yl)-8-(1-methyl-1H-pyrazol-4-yl)-2-oxo-2,3,4,7-tetrahydro-1H-pyrrolo[3′,2′:5,6]pyrido[4,3-d]pyrimidin-1-yl)-1-methylcyclohexyl)carbamate] was tested, and the pIC50 [1] was 7.00 to 8.00, the pIC50 [2] was < 6.00 and the pIC50 [3] was 7.00 to 8.00.
`COC(=O)N1CCC(N2C(=O)NCc3cnc4[nH]c(-c5cnn(C)c5)c(-c5ccc6c(cnn6C(C)C)c5)c4c32)CC1` [Example 14, Methyl 4-(9-(1-isopropyl-1H-indazol-5-yl)-8-(1-methyl-1H-pyrazol-4-yl)-2-oxo-2,3,4,7-tetrahydro-1H-pyrrolo[3′,2′:5,6]pyrido[4,3-d]pyrimidin-1-yl)piperidine-1-carboxylate] was tested, and the pIC50 [1] was 7.00 to 8.00, the pIC50 [2] was < 6.00 and the pIC50 [3] was 7.00 to 8.00.
In the case of `CC(=O)N1CCC(N2C(=O)NCc3cnc4[nH]c(-c5cnn(C)c5)c(-c5ccc6c(cnn6C(C)C)c5)c4c32)CC1` [Example 15, 1-(1-Acetylpiperidin-4-yl)-9-(1-isopropyl-1H-indazol-5-yl)-8-(1-methyl-1H-pyrazol-4-yl)-1,3,4,7-tetrahydro-2H-pyrrolo [3′,2′:5,6]pyrido[4,3-d]pyrimidin-2-one], the pIC50 [1] was 7.00 to 8.00, the pIC50 [2] was < 6.00 and the pIC50 [3] was 7.00 to 8.00.
With `CC(C)n1ncc2cc(-c3c(-c4cnn(C)c4)[nH]c4ncc5c(c34)N(C3CCN(S(C)(=O)=O)CC3)C(=O)NC5)ccc21` [Example 16, 9-(1-Isopropyl-1H-indazol-5-yl)-8-(1-methyl-1H-pyrazol-4-yl)-1-(1-(methylsulfonyl)piperidin-4-yl)-1,3,4,7-tetrahydro-2H-pyrrolo [3′,2′:5,6]pyrido[4,3-d]pyrimidin-2-one] the pIC50 [1] was 7.00 to 8.00, the pIC50 [2] was < 6.00 and the pIC50 [3] was 7.00 to 8.00.
With `CC(C)n1ncc2cc(-c3c(-c4cnn(C)c4)[nH]c4ncc5c(c34)N(C3CCN(C(=O)NCC(F)F)CC3)C(=O)NC5)ccc21` [Example 17, N-(2,2-Difluoroethyl)-4-(9-(1-isopropyl-1H-indazol-5-yl)-8-(1-methyl-1H-pyrazol-4-yl)-2-oxo-2,3,4,7-tetrahydro-1H-pyrrolo[3′,2′:5,6]pyrido[4,3-d]pyrimidin-1-yl)piperidine-1-carboxamide] the pIC50 [1] was 7.00 to 8.00, the pIC50 [2] was < 6.00 and the pIC50 [3] was 7.00 to 8.00.
`COC(=O)N1CC2(CCC(N3C(=O)NCc4cnc5[nH]c(-c6cnn(C)c6)c(-c6ccc7c(cnn7C(C)C)c6)c5c43)CC2)C1` [Example 18, Methyl 7-(9-(1-isopropyl-1H-indazol-5-yl)-8-(1-methyl-1H-pyrazol-4-yl)-2-oxo-2,3,4,7-tetrahydro-1H-pyrrolo[3′,2′:5,6]pyrido[4,3-d]pyrimidin-1-yl)-2-azaspiro[3.5] nonane-2-carboxylate] was tested, and the pIC50 [1] was 7.00 to 8.00, the pIC50 [2] was 6.30 to 7.00 and the pIC50 [3] was 7.00 to 8.00.
For `CC(C)n1ncc2cc(-c3c(-c4cnn(C)c4)[nH]c4ncc5c(c34)N(C3CCC4(CC3)CN(C(=O)NCC(F)F)C4)C(=O)NC5)ccc21` [Example 19, N-(2,2-Difluoroethyl)-7-(9-(1-isopropyl-1H-indazol-5-yl)-8-(1-methyl-1H-pyrazol-4-yl)-2-oxo-2,3,4,7-tetrahydro-1H-pyrrolo[3′,2′:5,6]pyrido[4,3-d]pyrimidin-1-yl)-2-azaspiro[3.5] nonane-2-carboxamide], the pIC50 [1] was 7.00 to 8.00, the pIC50 [2] was 6.30 to 7.00 and the pIC50 [3] was 7.00 to 8.00.
`CC(C)n1ncc2cc(-c3c(-c4cnn(C)c4)[nH]c4ncc5c(c34)N(C3CCC4(CC3)CN(S(=O)(=O)C3(C)CC3)C4)C(=O)NC5)ccc21` [Example 20, 9-(1-isopropyl-1H-indazol-5-yl)-8-(1-methyl-1H-pyrazol-4-yl)-1-(2-((1-methylcyclopropyl)sulfonyl)-2-azaspiro[3.5]nonan-7-yl)-1,3,4,7-tetrahydro-2H-pyrrolo [3′,2′:5,6]pyrido[4,3-d]pyrimidin-2-one] was tested, and the pIC50 [1] was 7.00 to 8.00, the pIC50 [2] was < 6.00 and the pIC50 [3] was 7.00 to 8.00.
With `CC(C)n1ncc2cc(-c3c(-c4cnn(C)c4)[nH]c4ncc5c(c34)N([C@H]3C[C@@H](NC(=O)Cc4ccn(C)n4)C3)C(=O)NC5)ccc21` [Example 21, N-((1s,3s)-3-(9-(1-Isopropyl-1H-indazol-5-yl)-8-(1-methyl-1H-pyrazol-4-yl)-2-oxo-2,3,4,7-tetrahydro-1H-pyrrolo[3′,2′:5,6]pyrido[4,3-d]pyrimidin-1-yl)cyclobutyl)-2-(1-methyl-1H-pyrazol-3-yl)acetamide] the pIC50 [1] was 7.00 to 8.00, the pIC50 [2] was 6.00 to 6.30 and the pIC50 [3] was 7.00 to 8.00.
For `CC(C)n1ncc2cc(-c3c(-c4cnn(C)c4)[nH]c4ncc5c(c34)N([C@H]3C[C@@H](NC(=O)c4nc(C(F)(F)F)cs4)C3)C(=O)NC5)ccc21` [Example 22, N-((1s,3s)-3-(9-(1-isopropyl-1H-indazol-5-yl)-8-(1-methyl-1H-pyrazol-4-yl)-2-oxo-2,3,4,7-tetrahydro-1H-pyrrolo[3′,2′:5,6]pyrido[4,3-d]pyrimidin-1-yl)cyclobutyl)-4-(trifluoromethyl)thiazole-2-carboxamide], the pIC50 [1] was 6.30 to 7.00, the pIC50 [2] was < 6.00 and the pIC50 [3] was 6.30 to 7.00.
`COC(=O)N[C@@H]1CC[C@@H](N2C(=O)NCc3cnc4[nH]c(-c5cnn(C)c5)c(-c5ccc6c(cnn6CC6CC6)c5)c4c32)C1` [Example 23, Methyl ((1R,3R)-3-(9-(1-(cyclopropylmethyl)-1H-indazol-5-yl)-8-(1-methyl-1H-pyrazol-4-yl)-2-oxo-2,3,4,7-tetrahydro-1H-pyrrolo[3′,2′:5,6]pyrido[4,3-d]pyrimidin-1-yl)cyclopentyl) carbamate] was tested, and the pIC50 [1] was 7.00 to 8.00, the pIC50 [2] was 6.30 to 7.00 and the pIC50 [3] was ≥ 8.00.
`COC(=O)N[C@@H]1CC[C@@H](N2C(=O)NCc3cnc4[nH]c(-c5cnn(C)c5)c(-c5ccc6c(cnn6C6CCC6)c5)c4c32)C1` [Example 24, Methyl ((1R,3R)-3-(9-(1-cyclobutyl-1H-indazol-5-yl)-8-(1-methyl-1H-pyrazol-4-yl)-2-oxo-2,3,4,7-tetrahydro-1H-pyrrolo[3′,2′:5,6]pyrido[4,3-d]pyrimidin-1-yl)cyclopentyl) carbamate] was tested, and the pIC50 [1] was 7.00 to 8.00, the pIC50 [2] was 6.30 to 7.00 and the pIC50 [3] was 7.00 to 8.00.
